Inconclusive results are not listed. Active and inactive are the calls of the source.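 How the source made its calls: active means compounds whose fitted half-maximal potency is at most ten times their top valid tested dose, reducing viability; inconclusive means flat curve with 30 to 70% viability loss, or poor fit; inactive means the rest.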
System: not listed separately
Assay: viability loss in BJeHLT fibroblasts, dose response, counter-screen for Ras selective lethality project, cell-based, plate reader, dry powder, set 4 (AID 540314)
Settings: BJeHLT fibroblasts viability, Alamar Blue fluorescence, 48 h; at 48 µM (top of the series)

SMILES	activity change, negative = less viable
Cc1onc(C(=O)N2CCN(Cc3ccccc3)CC2)c1[N+](=O)[O-]	8.05% (inactive)

System: BJeHLT fibroblasts viability, Alamar Blue fluorescence, 48 h
Assay: as above
Settings: not given

SMILES	AC50
Cc1onc(C(=O)N2CCN(C(c3ccc(F)cc3)c3ccc(F)cc3)CC2)c1[N+](=O)[O-]	2.12 µM
COC(=O)c1ccc([C@@H]2c3[nH]c4ccccc4c3C[C@@H](C(=O)OC)N2C(=O)CCl)cc1	1.57 µM
Cc1onc(C(=O)N2CCN(C(c3ccccc3)c3ccccc3)CC2)c1[N+](=O)[O-]	7.25 µM
CCOc1ccccc1-n1c(C(C)N2CCN(C(=O)COc3ccc(Cl)cc3)CC2)nc2ccccc2c1=O (stereo not given)	4.19 µM
COc1ccc(C(c2ccc(OC)cc2)N2CCN(C(=O)c3ccc([N+](=O)[O-])o3)CC2)cc1	6.87 µM
Cc1onc(C(=O)N2CCN(C(c3ccc(Cl)cc3)c3ccc(Cl)cc3)CC2)c1[N+](=O)[O-]	0.844 µM
O=C(NCCNC(c1ccccc1)c1ccccc1)c1ccc([N+](=O)[O-])o1	4.66 µM
O=C(c1ccc([N+](=O)[O-])o1)N1CCN(C(c2ccc(F)cc2)c2ccc(F)cc2)CC1	14.8 µM
Cc1onc(C(=O)N2CCN(C(c3ccccc3)c3ccc(Cl)cc3)CC2)c1[N+](=O)[O-] (stereo not given)	2.04 µM
